Assay results as given in patent US20120258929A1, “AGENT THAT MODULATES PHYSIOLOGICAL CONDITION OF PESTS, INVOLVED IN INSECT PEPTIDYL-DIPEPTIDASE A ACTIVITY” (SUMITOMO CHEMICAL COMPANY, LIMITED, priority 2005, published 2012).

Legend:
[1] = target: aphid peptidyl-dipeptidase A (Aphis gossypii, UniProt A0A2K9Y4D7); test: Inhibition of aphid peptidyl-dipeptidase A activity, in vitro, substrate Abz-Gly-p-nitro-Phe-Pro-OH; assay type: biochemical, cotton aphid (Aphis gossypii); details: for IC50: concentrations 100 to 0.03 μM, calculated with XL fit, read-out: Activity of inhibiting peptidyl-dipeptidase A activity IC50, (μM)); for inhibition at 10 µM / Activity of inhibiting peptidyl-dipeptidase A activity (inhibition degree (%) at 10 μM addition): test compound in DMSO, final concentration 10 μM, relative to DMSO control; for inhibition at 10 µM: read-out: Activity of inhibiting peptidyl-dipeptidase A activity (inhibition degree (%) at 10 μM addition)
Method: Selection of a compound which modulates the activity of a peptidyl-dipeptidase A was performed in a system where the activity of a peptidyl-dipeptidase A which is modulated by adding a test compound to an in vitro reaction system using the aphid peptidyl-dipeptidase A prepared in Example 7 is measured and evaluated.
Measurement of the activity of the aphid peptidyl-dipeptidase A was performed according to a method using Abz-Gly-p-nitro-Phe-Pro-OH (manufactured by Bachem, M-1100) as a substrate, as described in the previously reported article (Carmel et al. (1979) Clinica Chimica Acta, 93, 215-220).
For measuring the activity, the activity of the aphid peptidyl-dipeptidase A was measured when a test compound dissolved in DMSO was contained to a final concentration of 10 μM. In addition, the activity of the aphid peptidyl-dipeptidase A was measured when DMSO was contained in place of a test compound. Then, a ratio (%) of a measured value of the activity of the aphid peptidyl-dipeptidase A when a test compound dissolved in DMSO was contained, relative to a measured value of the activity of aphid peptidyl-dipeptidase A when DMSO was contained in place of the test compound was calculated, and a value obtained by subtracting the calculated value from 100% was adopted as an inhibition degree (%).
The activity of aphid peptidyl-dipeptidase A was measured when a test compound dissolved in DMSO was contained to a final concentration of each concentration of 100 μM, 30 μM, 10 μM, 3 μM, 1 μM, 0.3 μM, 0.1 μM or 0.03 μM.

Aphis gossypil = test: Pesticidal activity test, artificial feed rearing, surviving aphids after six days; assay type: in vivo
Method: A sterilized artificial feed having the following composition (Table 3) was prepared. […] Controlling value (%)={1−(Cb×Tai)/(Cai×Tb)}×100 Letters in the equation represent the following meanings.

[2] = test compound dissolved in DMSO to a final concentration of 640 μM, added at 0.5% volume of artificial feed, significant controlling value (e.g. 30% or more) = pesticidal activity
[3] = test compound dissolved in DMSO to a final concentration of 50 ppm, otherwise as Example 9

Sequence of aphid peptidyl-dipeptidase A (A0A2K9Y4D7 entry or part of it): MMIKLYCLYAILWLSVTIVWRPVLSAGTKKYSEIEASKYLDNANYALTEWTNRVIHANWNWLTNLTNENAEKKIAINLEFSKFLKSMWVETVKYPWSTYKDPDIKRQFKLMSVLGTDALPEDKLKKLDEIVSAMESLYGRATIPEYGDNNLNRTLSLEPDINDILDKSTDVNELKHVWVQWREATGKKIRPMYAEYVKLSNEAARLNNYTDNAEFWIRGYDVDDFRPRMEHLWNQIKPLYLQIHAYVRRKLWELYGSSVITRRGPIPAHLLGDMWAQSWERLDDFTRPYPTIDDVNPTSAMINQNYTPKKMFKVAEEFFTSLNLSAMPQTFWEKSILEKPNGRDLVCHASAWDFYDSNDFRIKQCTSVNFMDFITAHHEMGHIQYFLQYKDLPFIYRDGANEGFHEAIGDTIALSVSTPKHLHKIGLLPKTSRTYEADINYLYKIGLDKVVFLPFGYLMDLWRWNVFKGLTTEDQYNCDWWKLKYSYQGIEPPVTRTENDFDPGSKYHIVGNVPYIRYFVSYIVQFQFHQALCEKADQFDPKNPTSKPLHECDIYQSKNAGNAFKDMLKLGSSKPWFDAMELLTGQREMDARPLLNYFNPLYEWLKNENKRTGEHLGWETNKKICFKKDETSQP

Which IC50 [1] does the source give for `CCOC(=O)[C@H](CCc1ccccc1)N[C@H]1CCc2ccccc2N(CC(=O)O)C1=O` [benazepril] here?
Its IC50 is 15.9 µM.

What about the inhibition at 10 µM [1] of the same compound?
Its inhibition at 10 µM is 41%.

And the “Determination result of pesticidal activity” value (from here on “Determination result”) (Aphis gossypil; [2])?
Its value is “Presence of pesticidal activity”.

And the “Determination result” value (Aphis gossypil; [3])?
Its value is “Presence of pesticidal activity”.

With `COC(=O)C(Cc1ccccc1)NC(=O)Nc1n[nH]c(=S)s1` (stereo not drawn) [MMP-2/MMP-3 inhibitor I] as the compound, how does the inhibition at 10 µM [1] read?
Its inhibition at 10 µM is 79%.

What about the “Determination result” value (Aphis gossypil; [2]) of the same compound?
Its value is “Presence of pesticidal activity”.

For `CCOC(=O)[C@H](CCc1ccccc1)N[C@@H](C)C(=O)N1[C@H](C(=O)O)C[C@@H]2CCC[C@@H]21` [ramipril], which inhibition at 10 µM [1] is on record?
Its inhibition at 10 µM is 16%.

And the “Determination result” value (Aphis gossypil; [2])?
Its value is “Presence of pesticidal activity”.

With `CC12CCC3c4ccc(O)cc4CCC3C1C/C(=C\c1ccc(OC(F)(F)F)cc1)C2=O` (stereo not drawn) [DF15164] as the compound, how does the “Determination result” value (Aphis gossypil; [3]) read?
Its value is “Absence of pesticidal activity”.

With `C[C@H](CS)C(=O)N1CCC[C@H]1C(=O)O` [captopril] as the compound, how does the inhibition at 10 µM [1] read?
Its inhibition at 10 µM is 99%.

quinapril was tested. Which IC50 [1] did it give?
The IC50 was 35.8 µM.

And the “Activity of inhibiting peptidyl-dipeptidase A activity (inhibition degree (%) at 10 μM addition)” value [1]?
The value was 15%.

What about the “Determination result” value (Aphis gossypil; […], significant controlling value (e.g. 30% or more) = pesticidal activity) of the same compound?
Its value is “Presence of pesticidal activity”.

What about the “Determination result” value (Aphis gossypil; [3]) of the same compound?
The value was “Presence of pesticidal activity”.

With `CCOC(=O)[C@H](CCc1ccccc1)N[C@@H](C)C(=O)N1CCC[C@H]1C(=O)O` [enalapril] as the compound, how does the inhibition at 10 µM [1] read?
The inhibition at 10 µM was 98%.

And the “Determination result” value (Aphis gossypil; [2])?
Its value is “Presence of pesticidal activity”.

Which “Activity of inhibiting peptidyl-dipeptidase A activity (inhibition degree (%) at 10 μM addition)” value [1] does the source give for `CCN(CC)CCO[C@H]1CC[C@@]2(C)C(=CC[C@@H]3[C@@H]2CC[C@]2(C)C(=O)CC[C@@H]32)C1` [3-beta-[2-(diethylamino)ethoxy]androst-5-en-17-one] here?
The value was 17%.

What about the “Determination result” value (Aphis gossypil; [2]) of the same compound?
Its value is “Presence of pesticidal activity”.
